Drawing on patent US10160753B2, “Indazole compounds as IRAK4 inhibitors” (Aurigene Discovery Technologies Limited, priority 2014, dated 2018), this text covers IC50 for 5 molecules.

Counter-ions that a name gives are not always drawn.

The test has as its target T1, recombinant IRAK-4 kinase (Homo sapiens, UniProt Q9NWZ3).
T1 construct: purchased Millipore, USA
T1 sequence (Q9NWZ3 1-460): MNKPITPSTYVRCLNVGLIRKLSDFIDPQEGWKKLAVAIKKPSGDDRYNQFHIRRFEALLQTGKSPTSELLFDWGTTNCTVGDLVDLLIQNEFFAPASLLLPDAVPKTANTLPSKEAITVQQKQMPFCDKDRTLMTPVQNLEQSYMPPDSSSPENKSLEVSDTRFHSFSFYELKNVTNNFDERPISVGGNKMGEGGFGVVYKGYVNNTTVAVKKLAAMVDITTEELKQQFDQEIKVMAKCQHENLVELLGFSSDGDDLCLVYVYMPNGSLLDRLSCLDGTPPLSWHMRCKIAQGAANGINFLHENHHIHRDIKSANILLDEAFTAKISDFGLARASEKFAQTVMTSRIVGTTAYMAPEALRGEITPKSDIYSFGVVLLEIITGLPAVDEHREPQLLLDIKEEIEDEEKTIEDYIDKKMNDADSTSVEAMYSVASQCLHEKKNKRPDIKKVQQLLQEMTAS
The test is described as follows: IRAK-4 Biochemical Assay (TR-FRET). To be noted: 30 min pre-incubation, 100 nM Biotin Histone H3, 20 μM ATP, read-out: IC50 values for IRAK4 activity. A general note: Time-resolved FRET reads energy transfer from a long-lived donor to a nearby acceptor.

On to `Cc1cc(-c2nc(C(=O)Nc3cc4cnn(C)c4cc3N3CCC(O)CC3)co2)cc(C)n1` [Example 114, 2-(2,6-dimethylpyridin-4-yl)-N-(6-(4-hydroxypiperidin-1-yl)-1-methyl-1H-indazol-5-yl)oxazole-4-carboxamide], for which the IC50 was under 50 nM.
For `Cn1cc2cc(NC(=O)c3coc(-c4ccnc(N)c4)n3)c(N3CCC(O)CC3)cc2n1` [Example 93, 2-(2-aminopyridin-4-yl)-N-(6-(4-hydroxypiperidin-1-yl)-2-methyl-2H-indazol-5-yl)oxazole-4-carboxamide hydrochloride] the value was under 50 nM.
Next, `Cn1ncc2cc(NC(=O)c3coc(N4CC[C@H](O)C4)n3)c(C3CC3)cc21` [Example 50, (S)—N-(6-cyclopropyl-1-methyl-1H-indazol-5-yl)-2-(3-hydroxypyrrolidin-1-yl)oxazole-4-carboxamide]: over 100 nM; `Cc1cc(-c2nc(C(=O)Nc3cc4cn(C)nc4cc3N3CCC(CO)CC3)co2)ccn1` [Example 80, N-(6-(4-(hydroxymethyl)piperidin-1-yl)-2-methyl-2H-indazol-5-yl)-2-(2-methylpyridin-4-yl)oxazole-4-carboxamide]: under 50 nM; `C[C@@H](O)Cn1cc(-c2cccc(C(=O)Nc3cc4cn(C)nc4cc3N3CCCCC3)n2)cn1` [Example 43, (R)-6-(1-(2-hydroxypropyl)-1H-pyrazol-4-yl)-N-(2-methyl-6-(piperidin-1-yl)-2H-indazol-5-yl)picolinamide]: under 50 nM.

A word on the IC50: it is the concentration at which inhibition is half-maximal.
